These results are taken from article PMC5630632, “Assessing inhibitors of mutant isocitrate dehydrogenase using a suite of pre-clinical discovery assays” (Scientific Reports, 2017).

Data set [1] has as its system RBE (R132S) 3D cellular spheroids. Kind of data set: 2-HG production, spheroids (3D), RBE. Type of data set: cell-based. Conditions: Homo sapiens; 3D spheroid, mass spec. An excerpt:
To evaluate the effect of mIDH1 inhibitors in more relevant models of solid tumors, we adapted a 3-dimensional (3D) multicellular tumor spheroid assay to monitor spheroid formation and 2-HG production. Small molecules can have diminished efficacy in multicellular tumor spheroid models due to limited penetration and the heterogeneous nature of the 3D tumor spheroid[39],[40]. We began by testing the 6 aforementioned cell lines for their ability to form spheroids in ultra-low attachment plates at varying cell concentrations (1000–5000 cells/well). […] Overall, spheroids produced less extracellular 2-HG than cells cultured in monolayer (Fig. 7B).
Using these simple 3D models of solid tumors, we assessed the ability of inhibitors to reduce 2-HG production.
2-HG production: Cells grown as spheroids (3D)
(RBE) cells/well/150 μ L to form spheroids. Of note, we were not able to obtain spheroids using SNU1079 cells. Plates were sealed with gas permeable membranes, centrifuged at 40 rcf for 1 min, and incubated at 37°C, 5% CO2, 90% RH for 96 (HT108 0, U87 and JJ01 2) or 4 8 (RBE) h r. Cells were washed (by remo ving 10 0 μL of exhausted media and re placing it with 100 μL of growth media, twice) and treated with 50 μL of a solution of media containing the indicated compounds. Each compound was tested as an 8-point dilution series ranging from 5 μM to 2.3 nM.
After 96 hr of t reatment, 100 μL of the exhausted media was collected and snap frozen on dry ice. Samples were analyzed by LC -MS for 2- HG concentrations using Rapidfire /Mass Spectrometry (Quintara) ( 4) . Plates were first imaged on the Celigo Imaging Cytometer (Ne xcelom Bioscience) to quantify area of each spheroid. Cell viability was subsequently measured using the CellTiter-Glo assay with some modifications: 50 μL of a solution of CellTiter-Glo reagent containing a final concentration of 0.025 % Trypsin (Thermo Sci entific) was added to each well and plates were shaken at 500 rpm for 30 min before reading.

Data set [2] in a line: High-throughput PAMPA (GIT), pH 7.4. It is filed as in vitro ADME. Conditions: read-out: HT PAMPA Permeability. An excerpt: In Vitro Physicochemical and Drug Metabolism Studies:
High-Throughput PAMPA assay
The stirring double- sin k PAMPA method patented by pION Inc. (Billeri ca, MA) was employed to determine the permeability of compounds via PAMPA passive diffusion. The PAMPA lipid membrane consisted of an artificial membrane of a proprietary lipid mixture and dodecane (Pion Inc.), optimized to predict gastrointestinal tract (GIT) passive diffusion permeability, was immobilized on a plastic matrix of a 96 well “donor” filter plate placed above a 96 well “a cceptor” plate. A pH 7.4 solution was used in both donor and acceptor wells. The test articles, stocked in 10 mM DMSO solutions, were diluted to 0.05 mM in aqueous buffer (pH 7.4) , and the concentration of DMSO was 0.5% in the final solution. During the 30-min permeation period at room temperature, the test samples in the donor compartment were stirred using the Gutbox te chnology (Pion Inc.) to reduce the unstirred water layer. The test article concentrations in the donor and acceptor compartments were measured using an UV plate reader (Nano Quant, Infinite 200 […]
PRO, Tecan Inc., Männedorf, Switzerland). Permeability calculations were performed using Pion Inc. software and were expressed in units of 10-6 cm/s. […]
Background: The PAMPA barrier holds no transporters, so it reflects passive diffusion.

Data set [3] can be described thus: High-throughput kinetic solubility (µSOL), pH 7.4. Type of data set: physicochemical. Conditions: aqueous solution pH 7.4, pH 7.4, aqueous buffer, kinetic from dmso stock; read-out: HT Kinetic Solubility, Solubility. On the procedure:
High-Throughput kinetic solubility test assay
Pion’s patented µSOL assay for kinetic solubility determination was used. In this assay, the classical saturation shake- flask solub ility method was adapted to a 96-well microtiter plate format and a co-solvent method with n- propanol as the […] was utilized. Test compounds were prepared in 10 mM DMSO solutions (45 µ L), and diluted with the co-solve nt to a final drug conce ntration of […]
Samples are incubated at room temperature for 6 hrs t o achieve equilibrium. The samples were then filtered to remove any precipitate formed. The concentrat ion of the compound in the filtrate was measured by UV ab sorbance. […]
used for quantitation of unknown drug concent ration in filtrate. Spectroscopically pure 1- Propanol was used as acosolvent to suppress precipitation in the reference

The nature of data set [4]: Microsomal metabolic stability, rat. It is filed as in vitro ADME. Conditions: pH 7.4; rat liver microsomes. A general note: Microsomes from liver hold many membrane-bound enzymes, among them those of drug oxidation.
In a further data set the target is T1, IDH2 WT (Homo sapiens, UniProt P48735).
T1 sequence (P48735 40-452): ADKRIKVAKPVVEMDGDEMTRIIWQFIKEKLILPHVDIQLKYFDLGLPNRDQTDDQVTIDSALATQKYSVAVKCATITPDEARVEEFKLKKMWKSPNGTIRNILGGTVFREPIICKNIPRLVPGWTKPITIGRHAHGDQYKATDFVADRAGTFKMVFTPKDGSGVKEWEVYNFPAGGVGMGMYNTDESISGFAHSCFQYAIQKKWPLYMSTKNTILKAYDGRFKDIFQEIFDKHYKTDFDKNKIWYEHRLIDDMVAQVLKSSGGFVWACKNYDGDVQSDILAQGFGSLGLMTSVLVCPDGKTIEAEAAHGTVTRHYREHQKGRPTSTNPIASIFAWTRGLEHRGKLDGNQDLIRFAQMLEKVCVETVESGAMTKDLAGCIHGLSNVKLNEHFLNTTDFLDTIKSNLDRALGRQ
Kind of data set: Wild type IDH2 enzyme assay, diaphorase/resazurin coupled.

Data set [5] concerns the target P-glycoprotein (P-gp, MDR1, ABCB1) in MDCK cells (Homo sapiens, UniProt P08183). Kind of data set: Bidirectional MDCK-MDR1 permeability assay (Cyprotex). Conditions: with tariquidar (1 µM) or verapamil (100 µM); result in words.
A short description of data set [6]: Human plasma protein binding (rapid equilibrium dialysis, Cyprotex). Type of data set: in vitro ADME. The settings on record: for fraction unbound at 4 h, 5 µM: human, plasma, human plasma.
[7] abbreviates: read-out: Human Plasma Protein Binding % Bound (converted).
[8] abbreviates: read-out: Human Plasma Protein Binding % Unbound.

In brackets after ≈: the same amount, converted by molar mass. Like-named read-outs stand apart in the source and are kept apart here.

Chain of P-glycoprotein (P-gp, MDR1, ABCB1) in MDCK cells (P08183 whole entry): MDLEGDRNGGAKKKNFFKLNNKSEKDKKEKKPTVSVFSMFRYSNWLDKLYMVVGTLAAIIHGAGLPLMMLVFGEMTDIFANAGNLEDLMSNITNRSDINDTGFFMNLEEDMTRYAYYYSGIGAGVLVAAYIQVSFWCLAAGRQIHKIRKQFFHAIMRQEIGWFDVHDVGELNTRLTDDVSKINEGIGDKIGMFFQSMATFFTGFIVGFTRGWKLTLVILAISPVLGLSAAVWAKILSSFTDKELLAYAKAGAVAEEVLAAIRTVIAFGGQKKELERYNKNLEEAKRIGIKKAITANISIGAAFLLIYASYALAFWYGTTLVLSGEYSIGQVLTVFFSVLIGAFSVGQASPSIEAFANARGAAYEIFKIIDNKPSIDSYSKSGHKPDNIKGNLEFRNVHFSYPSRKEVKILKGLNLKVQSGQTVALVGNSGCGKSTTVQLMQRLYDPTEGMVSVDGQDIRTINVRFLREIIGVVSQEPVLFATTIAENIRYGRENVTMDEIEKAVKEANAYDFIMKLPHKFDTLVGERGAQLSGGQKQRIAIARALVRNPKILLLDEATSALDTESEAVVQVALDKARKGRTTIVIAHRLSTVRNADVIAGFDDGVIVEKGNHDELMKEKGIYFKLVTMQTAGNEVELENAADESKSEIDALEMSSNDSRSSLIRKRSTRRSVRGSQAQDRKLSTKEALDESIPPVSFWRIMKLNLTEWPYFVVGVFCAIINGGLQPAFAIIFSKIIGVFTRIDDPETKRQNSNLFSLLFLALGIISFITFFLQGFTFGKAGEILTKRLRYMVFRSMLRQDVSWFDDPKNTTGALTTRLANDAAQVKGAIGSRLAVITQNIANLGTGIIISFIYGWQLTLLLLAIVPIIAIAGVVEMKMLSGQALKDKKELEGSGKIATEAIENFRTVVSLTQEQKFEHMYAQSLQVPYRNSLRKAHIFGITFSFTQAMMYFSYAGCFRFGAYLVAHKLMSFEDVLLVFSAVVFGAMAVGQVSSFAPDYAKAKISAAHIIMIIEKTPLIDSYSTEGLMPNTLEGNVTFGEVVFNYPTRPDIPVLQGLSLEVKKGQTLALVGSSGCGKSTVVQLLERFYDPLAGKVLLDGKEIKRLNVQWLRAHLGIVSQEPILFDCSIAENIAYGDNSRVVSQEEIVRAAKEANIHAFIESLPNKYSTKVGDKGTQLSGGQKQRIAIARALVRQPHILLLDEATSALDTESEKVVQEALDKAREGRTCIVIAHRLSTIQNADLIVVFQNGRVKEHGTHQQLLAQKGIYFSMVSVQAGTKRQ

`N#Cc1ccnc(N2C(=O)CC[C@H]2C(=O)N(c2cncc(F)c2)[C@H](C(=O)NC2CC(F)(F)C2)c2ccccc2Cl)c1` [AG-120, Ivosidenib]: the results for the concentration giving a half-maximal response (EC50) (in data set [1]; at IDH2 WT) were 254 nM and above 30000 nM, respectively. In addition, the values for the Emax (in data set [1]; on IDH2 WT (read-out: IDH2 WT % EMax)) were 62.9% and 24.7 ± 6.7%, respectively. Also, the Papp at 30 min, 0.05 mM in data set [2] turned out to be 537 ×10⁻⁶ cm/s. In addition, the kinetic solubility (commonly solubility judged after dilution from a stock solution rather than from solid) at 6 h in data set [3] is 105 µM (≈ 61.3 µg/mL). Also, the half-life (commonly the time in which the quantity being followed falls by half) at 1 µM in data set [4] is above 120 min. Moreover, the “basolateral/apical transport imbalance in the presence of P-gp inhibitors” value in data set [5] was “completely reversed”. In data set [6] (5 µM), the “unbound fraction in human plasma” value is on record as ~ 10 % unbound. The fraction unbound at 4 h, 5 µM in data set [6] (setting [7]) is 0.088; in data set [6] (setting [8]), 0.0876.

Regarding `Cc1ccccc1C(C(=O)NC1CCCCC1)N(C(=O)Cn1ccnc1C)c1cccc(F)c1` (centres unmarked) [AGI-5198], the EC50 (usually the concentration giving half of the maximal effect) in data set [1] was 1050 nM; on IDH2 WT it was above 30000 nM. Also, the Emax (commonly the size of the effect at its maximum, as opposed to the concentration needed) in data set [1] was 118%; on IDH2 WT (read-out: IDH2 WT % EMax) it was 25.2 ± 9.5%. Moreover, the Papp at 30 min, 0.05 mM in data set [2] is above 1400 ×10⁻⁶ cm/s. Moreover, in data set [3], the solubility (kinetic) at 6 h came out at 26.2 µM (≈ 12.1 µg/mL). Further, the half-life at 1 µM in data set [4] was found to be 4.4 min. Also, the values for the fraction unbound at 4 h, 5 µM in data set [6] (setting [7]) and in data set [6] (setting [8]) were 0.033 and 0.0326, respectively.

On to `Cc1ccccc1C(C(=O)NC1CCCCC1)N(C(=O)Cn1cnc2ccccc21)c1cccc(F)c1` (centres unmarked) [Agios 135], for which the EC50 in data set [1] was 451 nM; at IDH2 WT, above 30000 nM. In addition, the figures for the Emax (in data set [1]; on IDH2 WT (read-out: IDH2 WT % EMax)) were 97.4% and 18 ± 7.1%, respectively. In addition, the Papp at 30 min, 0.05 mM in data set [2] was 787 ×10⁻⁶ cm/s. For the same compound, the kinetic solubility at 6 h in data set [3] amounted to 5.8 µM (≈ 2.89 µg/mL). Further, the half-life at 1 µM in data set [4] turned out to be 1.4 min. Besides, the fraction unbound at 4 h, 5 µM in data set [6] (setting [7]) is 0.002; in data set [6] (setting [8]), 0.00167.

For `COc1c(C)cc(NC(=O)c2nn(Cc3ccc(F)cc3)c3c2CN(C(=O)c2ccc[nH]2)C[C@]3(C)C(N)=O)cc1C` [GSK864], the figures for the EC50 (in data set [1]; on IDH2 WT) were 482 nM and above 30000 nM, respectively. Moreover, the Emax came to 95.6% in data set [1] and 23.9 ± 2.3% on IDH2 WT (read-out: IDH2 WT % EMax). Also, the Papp at 30 min, 0.05 mM in data set [2] turned out to be 365 ×10⁻⁶ cm/s. In data set [3], the solubility (kinetic) at 6 h is 0.175 µM (≈ 0.0978 µg/mL). The same compound displayed a half-life at 1 µM in data set [4] of 72.7 min. Besides, the fraction unbound at 4 h, 5 µM in data set [6] (setting [7]) was 0.002; in data set [6] (setting [8]) it was 0.00206.

With `Cc1ccccc1[C@@H](C(=O)NC1CCCC1)N(C(=O)Cn1cnc2ccccc21)c1cccc(F)c1` [ML309], the EC50 in data set [1] was 321 nM; at IDH2 WT, above 30000 nM. Also, the Emax in data set [1] was determined as 91.3%; at IDH2 WT (read-out: IDH2 WT % EMax), 18.8 ± 7.7%. In data set [2], the Papp at 30 min, 0.05 mM is above 1700 ×10⁻⁶ cm/s. Also, the solubility (kinetic) at 6 h in data set [3] is 26.2 µM (≈ 12.7 µg/mL). This compound yielded a half-life at 1 µM in data set [4] of 1.8 min. The values for the fraction unbound at 4 h, 5 µM in data set [6] (setting [7]) and in data set [6] (setting [8]) were 0.004 and 0.00355, respectively.

As to `CC(=O)N1CCN(Cc2ccc([C@H](C)Nc3nccc(N4C(=O)OC[C@@H]4C(C)C)n3)cc2)CC1` [Norvartis 556], the EC50 in data set [1] is 546 nM; at IDH2 WT (read-out: IDH2 EC50, Biochemical, wild type IDH2), above 30000 nM. The maximal response (Emax) in data set [1] was found to be 102%; at IDH2 WT (read-out: IDH2 % EMax), 20.7%. For the same compound, the Papp at 30 min, 0.05 mM in data set [2] stood at 390 ×10⁻⁶ cm/s. Also, in data set [3], the solubility (kinetic) at 6 h was 148 µM (≈ 69.1 µg/mL). The compound also gave a half-life at 1 µM in data set [4] of 24.5 min. Moreover, the fraction unbound at 4 h, 5 µM in data set [6] (setting [7]) and in data set [6] (setting [8]) was 0.144 in each case.
